Laboratory results from PMC5418314, “First-in-human phase I study of SOR-C13, a TRPV6 calcium channel inhibitor, in patients with advanced solid tumors” (Investigational New Drugs, 2017).
Ends that are not written are not given here.

Tests used:
[1] = Phase I safety and tolerability (NCI CTCAE v4.0, DLT) in patients with advanced solid tumors; type: in vivo, human
Description: Dose-escalation was carried out according to a standard 3 + 3 design. At each dose level, cohorts of 3 to 6 patients were scheduled to receive two 21-day cycles of SOR-C13 treatment. SOR-C13 was administered on days 1–3 and 8–10 of the 21-day cycle was administered by IV infusion. The study drug (500 mg/vial) was dissolved in water for injection (2 mL) and diluted in saline prior to infusion to provide a 250 mL (total) infusion volume. Infusion time was increased after the first five patients from the initial 20 min to 90 min with the aim of increasing the safety and tolerability of the drug. In the event of clinically meaningful response (tumor response or stable disease), additional SOR-C13 cycles were offered to study patients. Post-treatment follow-up was completed one and two months after completion of SOR-C13 treatment.
A Safety Monitoring Committee (SMC) oversaw the safety aspects of the study. Safety endpoints included: incidence of adverse events (AEs) and serious AEs (SAEs), withdrawals due to AEs, Dose Limiting Toxicities (DLTs), infusion reactions, deaths on study, vital signs, electrocardiogram (ECGs), clinical laboratory parameters and changes to the treatment regimen (dose delay, dose decrease) due to AEs. The National Cancer Institute (NCI) Common Terminology Criteria for Adverse Events (CTCAE) Version 4.0 was used to grade the severity of AEs.
Based on the safety data from the first two cohorts, the regulatory authorities approved a revision of the definition to “one occurrence of ≥Grade 3 toxicity or one occurrence of Grade 2 hypocalcemia, over the first 21-day cycle”. The latter definition was used for the subsequent four cohorts in the study.

[2] = half-life in the blood compartment, mice; type: in vivo
[3] = half-life in the blood compartment, rat; type: in vivo
[4] = half-life in the blood compartment, dog; type: in vivo
[5] = system: voltage-gated calcium channels; experiment: voltage-gated calcium channel activity; type: biochemical
[6] = peptide degradation in human plasma; type: in vitro ADME
[7] = system: voltage-gated sodium channels; experiment: voltage-gated sodium channel activity; type: biochemical
[8] = Cohort 1 5.5 mg/kg N = 3, 20-min infusions
[9] = Cohort 1, 5.50 mg/kg, C1 D2, Dose# 2
[10] = Cohort 1, 5.50 mg/kg, C1 D8, Dose# 4
[11] = Cohort 2 2.75 mg/kg N = 2, 20-min infusions
[12] = Cohort 2, 2.75 mg/kg, C1 D2, Dose# 2
[13] = Cohort 3 1.375 mg/kg N = 3, 90-min infusions
[14] = Cohort 4 2.75 mg/kg N = 6, 90-min infusions
[15] = Cohort 4, 2.75 mg/kg, C1 D3, Dose# 3
[16] = Cohort 5 4.13 mg/kg N = 3, 90-min infusions
[17] = Cohort 6 6.20 mg/kg N = 6, 90-min infusions
[18] = Cohort 6, 6.20 mg/kg, C1 D8, Post 3
[19] = Cohort 6, 6.20 mg/kg, C1 D18, Post 6

KEFLHPSKVDLPR [SOR-C13]
Any TEAEs, Event ([1]; All Patients N = 23): 185 | TEAEs Definitely related, Event ([1]; All Patients N = 23): 5 | TEAEs Possibly related, Event ([1]; All Patients N = 23): 29 | TEAEs Probably related, Event ([1]; All Patients N = 23): 7 | TEAEs Remotely/Unlikely related, Event ([1]; All Patients N = 23): 10 | TEAEs Remotely/Unlikely related, Patient ([1]; All Patients N = 23): 4 (17) | TEAEs Unrelated, Event ([1]; All Patients N = 23): 134 | TEAEs Unrelated, Patient ([1]; All Patients N = 23): 21 (91) | Any TEAEs, Event [1, 8]: 49 | Any TEAEs, Patient [1, 8]: 3 (100) | TEAEs Definitely related, Event [1, 8]: 5 | TEAEs Definitely related, Patient [1, 8]: 2 (67) | TEAEs Possibly related, Event [1, 8]: 3 | TEAEs Possibly related, Patient [1, 8]: 2 (67) | TEAEs Probably related, Event [1, 8]: 3 | TEAEs Probably related, Patient [1, 8]: 2 (67) | TEAEs Remotely/Unlikely related, Event [1, 8]: 4 | TEAEs Remotely/Unlikely related, Patient [1, 8]: 1 (33) | TEAEs Unrelated, Event [1, 8]: 34 | TEAEs Unrelated, Patient [1, 8]: 3 (100) | DLT Blood calcium decreased, Relationship [1, 9]: Probably related | DLT Blood calcium decreased, Severity [1, 9]: Grade 2 | DLT Blood calcium decreased, Relationship [1, 10]: Definitely related | DLT Blood calcium decreased, Severity [1, 10]: Grade 2 | Any TEAEs, Event [1, 11]: 11 | Any TEAEs, Patient [1, 11]: 2 (100) | TEAEs Definitely related, Event [1, 11]: 0 | TEAEs Definitely related, Patient [1, 11]: 0 (0) | TEAEs Possibly related, Event [1, 11]: 0 | TEAEs Possibly related, Patient [1, 11]: 0 (0) | TEAEs Probably related, Event [1, 11]: 1 | TEAEs Probably related, Patient [1, 11]: 1 (50) | TEAEs Remotely/Unlikely related, Event [1, 11]: 0 | TEAEs Remotely/Unlikely related, Patient [1, 11]: 0 (0) | TEAEs Unrelated, Event [1, 11]: 10 | TEAEs Unrelated, Patient [1, 11]: 2 (100) | DLT Blood calcium decreased, Relationship [1, 12]: Probably related | DLT Blood calcium decreased, Severity [1, 12]: Grade 2 | Any TEAEs, Event [1, 13]: 25 | Any TEAEs, Patient [1, 13]: 3 (100) | TEAEs Definitely related, Event [1, 13]: 0 | TEAEs Definitely related, Patient [1, 13]: 0 (0) | TEAEs Possibly related, Event [1, 13]: 0 | TEAEs Possibly related, Patient [1, 13]: 0 (0) | TEAEs Probably related, Event [1, 13]: 0 | TEAEs Probably related, Patient [1, 13]: 0 (0) | TEAEs Remotely/Unlikely related, Event [1, 13]: 2 | TEAEs Remotely/Unlikely related, Patient [1, 13]: 1 (33) | TEAEs Unrelated, Event [1, 13]: 23 | TEAEs Unrelated, Patient [1, 13]: 3 (100) | frequency of drug-related TEAEs ([1]; Cohort 3 (1.375 mg/kg), 90-min infusions): 0% | Any TEAEs, Event [1, 14]: 52 | Any TEAEs, Patient [1, 14]: 6 (100) | TEAEs Definitely related, Event [1, 14]: 0 | TEAEs Definitely related, Patient [1, 14]: 0 (0) | TEAEs Possibly related, Event [1, 14]: 11 | TEAEs Possibly related, Patient [1, 14]: 4 (67) | TEAEs Probably related, Event [1, 14]: 0 | TEAEs Probably related, Patient [1, 14]: 0 (0) | TEAEs Remotely/Unlikely related, Event [1, 14]: 4 | TEAEs Remotely/Unlikely related, Patient [1, 14]: 2 (33) | TEAEs Unrelated, Event [1, 14]: 37 | TEAEs Unrelated, Patient [1, 14]: 6 (100) | frequency of drug-related TEAEs ([1]; Cohort 4 (2.75 mg/kg), 90-min infusions): 67% | DLT Ionized calcium decreased, Relationship [1, 15]: Possibly related | DLT Ionized calcium decreased, Severity [1, 15]: Grade 2 | Any TEAEs, Event [1, 16]: 14 | Any TEAEs, Patient [1, 16]: 3 (100) | TEAEs Definitely related, Event [1, 16]: 0 | TEAEs Definitely related, Patient [1, 16]: 0 (0) | TEAEs Possibly related, Event [1, 16]: 5 | TEAEs Possibly related, Patient [1, 16]: 3 (100) | TEAEs Probably related, Event [1, 16]: 3 | TEAEs Probably related, Patient [1, 16]: 1 (33) | TEAEs Remotely/Unlikely related, Event [1, 16]: 0 | TEAEs Remotely/Unlikely related, Patient [1, 16]: 0 (0) | TEAEs Unrelated, Event [1, 16]: 6 | TEAEs Unrelated, Patient [1, 16]: 2 (67) | frequency of drug-related TEAEs ([1]; Cohort 5 (4.13 mg/kg), 90-min infusions): 100% | Any TEAEs, Event [1, 17]: 34 | Any TEAEs, Patient [1, 17]: 6 (100) | TEAEs Definitely related, Event [1, 17]: 0 | TEAEs Definitely related, Patient [1, 17]: 0 (0) | TEAEs Possibly related, Event [1, 17]: 10 | TEAEs Possibly related, Patient [1, 17]: 6 (100) | TEAEs Probably related, Event [1, 17]: 0 | TEAEs Probably related, Patient [1, 17]: 0 (0) | TEAEs Remotely/Unlikely related, Event [1, 17]: 0 | TEAEs Remotely/Unlikely related, Patient [1, 17]: 0 (0) | TEAEs Unrelated, Event [1, 17]: 24 | TEAEs Unrelated, Patient [1, 17]: 5 (83) | frequency of drug-related TEAEs ([1]; Cohort 6 (6.20 mg/kg), 90-min infusions): 100% | DLT Atrial fibrillation, Relationship [1, 18]: Unrelated | DLT Atrial fibrillation, Severity [1, 18]: Grade 3 | DLT Anaemia, Relationship [1, 19]: Unrelated | DLT Anaemia, Severity [1, 19]: Grade 3 | Grade 4 TEAEs ([1]; N = 23): No Grade 4 TEAE occurred | TEAEs by MedDRA SOC: Gastrointestinal disorders, patients ([1]; N = 23): 48% | TEAEs by MedDRA SOC: General disorders and administration site conditions, patients ([1]; N = 23): 44% | TEAEs by MedDRA SOC: Infections and infestations, patients ([1]; N = 23): 48% | TEAEs by MedDRA SOC: Investigations, patients ([1]; N = 23): 44% | TEAEs by MedDRA SOC: Metabolism and nutrition disorders, patients ([1]; N = 23): 65% | drug-related Serious Adverse Events (SAEs) ([1]; N = 23): No drug-related Serious Adverse Events (SAEs) occurred | TEAE Anaemia, percentage of patients ([1]; N = 23, MedDRA preferred term): 30% | TEAE Aspartate amino transferase increased, percentage of patients ([1]; N = 23, MedDRA preferred term): 17% | TEAE Blood Calcium Decreased, percentage of patients ([1]; N = 23, MedDRA preferred term): 22% | TEAE Blood alkaline phosphatase increased, percentage of patients ([1]; N = 23, MedDRA preferred term): 13% | TEAE Constipation, percentage of patients ([1]; N = 23, MedDRA preferred term): 17% | TEAE Cough, percentage of patients ([1]; N = 23, MedDRA preferred term): 17% | TEAE Decreased Appetite, percentage of patients ([1]; N = 23, MedDRA preferred term): 22% | TEAE Diarrhoea, percentage of patients ([1]; N = 23, MedDRA preferred term): 13% | TEAE Fatigue, percentage of patients ([1]; N = 23, MedDRA preferred term): 30% | TEAE Hypercalcaemia, percentage of patients ([1]; N = 23, MedDRA preferred term): 13% | TEAE Hyperkalaemia, percentage of patients ([1]; N = 23, MedDRA preferred term): 13% | TEAE Hypoalbuminaemia, percentage of patients ([1]; N = 23, MedDRA preferred term): 30% | TEAE Hypocalcaemia, percentage of patients ([1]; N = 23, MedDRA preferred term): 13% | TEAE Nausea, percentage of patients ([1]; N = 23, MedDRA preferred term): 22% | TEAE Urinary Tract Infection, percentage of patients ([1]; N = 23, MedDRA preferred term): 30% | total number of Grade 3 TEAEs ([1]; N = 23, in thirteen patients): 18 | patients with DLTs ([1]; all cohorts, N = 23, first 21-day cycle): 26.1% | drug-related blood calcium decrease, patients ([1]; all patients N = 23): 13% | drug-related decreased appetite, patients ([1]; all patients N = 23): 9% | drug-related hypoalbuminemia, patients ([1]; all patients N = 23): 30% | drug-related hypocalcemia, patients ([1]; all patients N = 23): 13% | drug-related increased aspartate aminotransferase (AST), patients ([1]; all patients N = 23): 9% | Maximal Tolerated Dose (MTD) ([1]; doses up to 6.2 mg/kg): not established | drug-related hypocalcemia, patients ([1]; patients receiving 90-min infusions (n = 18)): 13% | patients with TEAEs related to the study drug ([1]; possibly, probably or definitely related, total population N = 23): 70% | Grade 3 TEAEs assessed as related to the study drug ([1]; urticaria, ALT increased, AST increased, headache, hypokalaemia): Five of the 18 | deaths during treatment or post-treatment follow-up ([1]; within two months after the last study drug administration): No deaths occurred | half-life in the blood compartment [2]: < 5 min | half-life in the blood compartment [3]: < 5 min | half-life in the blood compartment [4]: < 5 min | modulation of channel activity [5]: no modulation of channel activity | peptide degradation half-life [6]: about 1 h | modulation of channel activity [7]: no modulation of channel activity
